From paper PMC3914206

Key:
Format in all cases: binding
Conditions in all cases: Compound Concentration 10 µM
panel of 442 kinases [1] = target: T1, panel of 442 kinases (Homo sapiens, UniProt P06213)
T1 construct: purchased KINOMEscan
Excerpt: (§1) We assessed the selectivity of members of this scaffold using the KINOMEscan methodology across a near comprehensive panel of 442 kinases [[18,27]].

panel of 442 kinases [2] = target: T2, panel of 442 kinases (Homo sapiens, UniProt P31152)
T2 construct: purchased KINOMEscan
Excerpt: as §1

panel of 442 kinases [3] = target: T3, panel of 442 kinases (Homo sapiens, UniProt Q9P289)
T3 construct: purchased KINOMEscan
Excerpt: as §1

T3 sequence (Q9P289 whole entry): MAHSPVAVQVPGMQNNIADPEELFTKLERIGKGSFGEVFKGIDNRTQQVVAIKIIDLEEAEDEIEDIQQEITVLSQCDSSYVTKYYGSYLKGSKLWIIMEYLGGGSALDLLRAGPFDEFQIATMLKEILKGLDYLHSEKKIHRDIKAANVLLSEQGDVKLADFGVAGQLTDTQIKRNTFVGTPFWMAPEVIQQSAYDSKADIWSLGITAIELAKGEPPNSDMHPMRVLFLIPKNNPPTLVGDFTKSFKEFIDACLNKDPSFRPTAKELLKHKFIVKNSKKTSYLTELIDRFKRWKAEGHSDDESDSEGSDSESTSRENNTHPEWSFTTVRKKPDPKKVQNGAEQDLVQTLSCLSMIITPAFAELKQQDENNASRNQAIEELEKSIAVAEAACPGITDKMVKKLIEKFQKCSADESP
T2 sequence (P31152 whole entry): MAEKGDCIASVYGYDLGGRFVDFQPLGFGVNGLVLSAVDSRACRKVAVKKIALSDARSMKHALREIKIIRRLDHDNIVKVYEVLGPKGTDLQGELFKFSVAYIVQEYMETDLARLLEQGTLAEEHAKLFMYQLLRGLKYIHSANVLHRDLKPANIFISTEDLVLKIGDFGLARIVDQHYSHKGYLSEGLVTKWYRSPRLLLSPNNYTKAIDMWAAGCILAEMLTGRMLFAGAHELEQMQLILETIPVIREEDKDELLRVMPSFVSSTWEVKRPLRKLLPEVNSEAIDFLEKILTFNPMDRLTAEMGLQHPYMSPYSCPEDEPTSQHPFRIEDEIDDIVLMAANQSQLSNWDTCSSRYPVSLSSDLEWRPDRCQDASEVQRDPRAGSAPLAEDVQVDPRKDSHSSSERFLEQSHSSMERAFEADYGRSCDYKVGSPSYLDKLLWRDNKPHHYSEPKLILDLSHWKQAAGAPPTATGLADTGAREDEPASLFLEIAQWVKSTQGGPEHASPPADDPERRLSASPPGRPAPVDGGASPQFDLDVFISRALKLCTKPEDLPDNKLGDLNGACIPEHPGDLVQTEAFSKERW
T1 sequence (P06213 28-1382): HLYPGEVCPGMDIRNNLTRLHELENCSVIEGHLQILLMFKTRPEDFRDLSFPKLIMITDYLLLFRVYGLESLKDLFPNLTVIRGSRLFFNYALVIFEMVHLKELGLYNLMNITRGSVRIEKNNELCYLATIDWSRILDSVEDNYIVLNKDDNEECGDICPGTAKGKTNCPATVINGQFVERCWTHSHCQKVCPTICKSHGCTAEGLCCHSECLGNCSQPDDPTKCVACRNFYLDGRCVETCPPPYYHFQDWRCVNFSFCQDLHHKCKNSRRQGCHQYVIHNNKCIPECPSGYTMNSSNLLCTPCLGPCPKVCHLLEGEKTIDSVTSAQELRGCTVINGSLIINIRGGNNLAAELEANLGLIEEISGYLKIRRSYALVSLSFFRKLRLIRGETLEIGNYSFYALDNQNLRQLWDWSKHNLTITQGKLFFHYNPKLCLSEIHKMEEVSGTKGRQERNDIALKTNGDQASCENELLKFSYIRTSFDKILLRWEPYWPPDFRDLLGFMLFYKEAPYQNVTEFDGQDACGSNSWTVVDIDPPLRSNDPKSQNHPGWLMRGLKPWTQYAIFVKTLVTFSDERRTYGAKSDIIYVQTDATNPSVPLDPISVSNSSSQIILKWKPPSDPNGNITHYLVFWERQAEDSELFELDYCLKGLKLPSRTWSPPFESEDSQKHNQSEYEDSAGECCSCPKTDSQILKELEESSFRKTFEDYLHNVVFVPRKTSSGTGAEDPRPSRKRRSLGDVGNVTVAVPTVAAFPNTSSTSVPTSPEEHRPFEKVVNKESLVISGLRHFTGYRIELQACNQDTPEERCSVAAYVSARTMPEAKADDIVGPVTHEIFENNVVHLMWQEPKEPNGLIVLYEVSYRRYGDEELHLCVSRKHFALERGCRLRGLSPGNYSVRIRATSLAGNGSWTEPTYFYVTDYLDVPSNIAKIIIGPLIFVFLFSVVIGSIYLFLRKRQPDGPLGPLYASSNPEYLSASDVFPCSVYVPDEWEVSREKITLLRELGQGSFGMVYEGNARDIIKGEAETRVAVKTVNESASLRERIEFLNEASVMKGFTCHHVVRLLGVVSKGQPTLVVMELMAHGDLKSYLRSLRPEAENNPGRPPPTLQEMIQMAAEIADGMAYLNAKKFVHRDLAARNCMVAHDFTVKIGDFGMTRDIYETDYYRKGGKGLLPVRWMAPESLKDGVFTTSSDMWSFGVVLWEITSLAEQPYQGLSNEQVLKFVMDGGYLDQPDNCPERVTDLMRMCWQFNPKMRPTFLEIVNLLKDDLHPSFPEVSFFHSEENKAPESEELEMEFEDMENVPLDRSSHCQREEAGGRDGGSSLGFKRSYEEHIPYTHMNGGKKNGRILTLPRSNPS

COc1cc(C(=O)N2CCC(N3CCN(C)CC3)CC2)ccc1Nc1ncc2c(n1)N1CCc3cccc(c31)C(=O)N2C [Compound 24]
KINOMEscan: INSR (panel of 442 kinases [1]): 78

CCOc1cc(C(=O)N2CCC(N3CCN(C)CC3)CC2)ccc1Nc1ncc2c(n1)N(C1CCCC1)c1ccccc1C(=O)N2C [Compound 26]
KINOMEscan: INSR (panel of 442 kinases [1]): 100 | KINOMEscan: ERK4 (panel of 442 kinases [2]): 100 | KINOMEscan: MST4 (panel of 442 kinases [3]): 100

COc1cc(C(=O)N2CCC(N3CCN(C)CC3)CC2)ccc1Nc1ncc2c(n1)N(C1CCCC1)c1ccccc1C(=O)N2C [Compound 25, 11-cyclopentyl-2-((2-methoxy-4-(4-(4-methylpiperazin-1-yl)piperidine-1-carbonyl)phenyl)amino)-5-methyl-5H-benzo[e]pyrimido[5,4-b][1,4]diazepin-6(11H)-one]
KINOMEscan: INSR (panel of 442 kinases [1]): 88 | KINOMEscan: ERK4 (panel of 442 kinases [2]): 100 | KINOMEscan: MST4 (panel of 442 kinases [3]): 100

COc1cc(C(=O)N2CCC(N3CCN(C)CC3)CC2)ccc1Nc1ncc2c(n1)N(C)c1ccccc1C(=O)N2C [15 (LRRK2-IN-1)]
KINOMEscan: INSR (panel of 442 kinases [1]): 84 | KINOMEscan: ERK4 (panel of 442 kinases [2]): 100 | KINOMEscan: MST4 (panel of 442 kinases [3]): 95
